The target in one test is T1, ERα-SRC3 interaction (Homo sapiens, UniProt P03372).
T1 construct: endogenous in cells; host or cells: MCF-7
T1 sequence (P03372 1-595): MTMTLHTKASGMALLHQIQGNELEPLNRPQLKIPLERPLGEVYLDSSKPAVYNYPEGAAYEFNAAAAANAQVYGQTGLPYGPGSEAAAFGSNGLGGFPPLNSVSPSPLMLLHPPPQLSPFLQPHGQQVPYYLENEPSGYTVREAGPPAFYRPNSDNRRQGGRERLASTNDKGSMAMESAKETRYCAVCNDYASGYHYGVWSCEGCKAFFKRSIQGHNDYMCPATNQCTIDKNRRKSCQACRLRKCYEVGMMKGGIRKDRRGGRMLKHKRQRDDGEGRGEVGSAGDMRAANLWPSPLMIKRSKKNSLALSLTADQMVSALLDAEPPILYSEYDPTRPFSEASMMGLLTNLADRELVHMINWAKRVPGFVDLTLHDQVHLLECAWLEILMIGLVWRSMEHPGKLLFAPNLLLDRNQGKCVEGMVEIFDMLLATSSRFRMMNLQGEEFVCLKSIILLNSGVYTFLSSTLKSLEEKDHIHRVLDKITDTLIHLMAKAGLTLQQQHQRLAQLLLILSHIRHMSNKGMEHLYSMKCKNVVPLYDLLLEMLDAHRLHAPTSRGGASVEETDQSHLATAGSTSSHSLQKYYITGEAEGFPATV
The experiment in a line: co-immunoprecipitation of ERα and SRC3 in MCF-7 cells. Format: cell-based. To be noted: 10 nM E2 or 1 μM PaPE-1, 1 h. From the text:
FIG. 10. Estrogen receptor and coactivator binding and interaction assays with ligands and ligand dissociation rates. […] After ligand treatment, cell lysates were immunoprecipitated with antibody to SRC3 or control IgG, and immunoprecipitates were separated on SDS PAGE gels and blotted for ERα using anti-ERα antibody. […] For details, see methods below.
Western blot analysis used specific antibodies for ERα (HC-20, Santa Cruz); ERK2 (D-2, Santa Cruz); and pS^6, pS6K, pmTOR, pRAPTOR, pRICTOR, pMAPK (Cell Signaling). Coimmunoprecipitation assays used antibodies for SRC3 (Santa Cruz, C-20) and ERα (Santa Cruz, F10).

The target in the next test is T2, ERα and RAPTOR (Homo sapiens, UniProt P03372).
T2 construct: endogenous in cells; host or cells: MCF-7
T2 sequence (P03372 1-595): T1 sequence (P03372 1-595)
The experiment in a line: proximity ligation assay in MCF-7 cells. To be noted: 10 nM E2 or 1 μM PaPE-1, 15 min. Format: cell-based. The procedure: Next day, the proximity ligation assay (PLA) was performed using the Duolink In Situ kit (Olink Bioscience) according to the manufacturer's instructions, as described in Zhao et. al., Endocrinology, 154, 1349-1360, 2013. Briefly, overnight incubation with primary antibodies was followed by hybridization with two PLA probes at 37° C. for 1 h, and then by ligation for 15 min and amplification for 90 min at 37° C. A coverslip was mounted on each slide and image acquisition and analysis conducted. Samples were imaged using a 63×/1.4 Oil DIC M27 objective in a Zeiss LSM 700 or 710 laser scanning confocal microscope. Images were obtained in a sequential manner using a 488 Ar (10 mW) laser line for PLA signal. The individual channels for DAPI and PLA signal were obtained using a sequential scanning mode to prevent bleed-through of the excitation signal. Laser power, gain and offset were kept constant across the samples and scanned in a high resolution format of 512×512 or 1024×1024 pixels with 2/4 frames averaging. Further quantification of the images used Fiji software (http://fiji.sc/wiki/index.php/Fiji). Briefly, images were converted to 8 bit for segmentation for each channel, and images were background subtracted using a rolling-ball method, with a pixel size of 100 and segmented using the DAPI channel.

Entries after “also recorded” stand apart in the source; their conditions may differ.

`Cc1cc(-c2ccc3c(c2)CCC3O)cc(C)c1O` (racemic) [Compound 2, 5-(4-hydroxy-3,5-dimethylphenyl)-2,3-dihydro-1H-inden-1-ol]: the “coimmunoprecipitation of ERα with SRC3” value at ERα-SRC3 interaction is “no coimmunoprecipitated complexes were observed”. The “interaction of ERα with RAPTOR” value on ERα and RAPTOR is “to a greater extent; also recorded: induces interaction between ERα and Raptor”.
